These results are taken from ChEMBL document CHEMBL5210121, “Affinity On-target Cellular Literature for EUbOPEN Chemogenomics Library wave 3” (2023).

For orientation: IC50 means the midpoint of a concentration-inhibition curve. For orientation: EC50 means the concentration needed to bring the measured effect to its halfway point. A higher EC50 goes with a less potent agent.

Test [1] deals with T1, Protein AF-9 (Homo sapiens, UniProt P42568). Nature of the test: Affinity On-target Cellular interaction (NanoBRET assay (HEK293T cells)) EUB0000732a MLLT3. Further details: mode of action Negative control for PFI-6, recommended concentration 1 uM. In general terms: BRET reads energy transfer from a luciferase to a nearby fluorophore.
T1 sequence (P42568 whole entry): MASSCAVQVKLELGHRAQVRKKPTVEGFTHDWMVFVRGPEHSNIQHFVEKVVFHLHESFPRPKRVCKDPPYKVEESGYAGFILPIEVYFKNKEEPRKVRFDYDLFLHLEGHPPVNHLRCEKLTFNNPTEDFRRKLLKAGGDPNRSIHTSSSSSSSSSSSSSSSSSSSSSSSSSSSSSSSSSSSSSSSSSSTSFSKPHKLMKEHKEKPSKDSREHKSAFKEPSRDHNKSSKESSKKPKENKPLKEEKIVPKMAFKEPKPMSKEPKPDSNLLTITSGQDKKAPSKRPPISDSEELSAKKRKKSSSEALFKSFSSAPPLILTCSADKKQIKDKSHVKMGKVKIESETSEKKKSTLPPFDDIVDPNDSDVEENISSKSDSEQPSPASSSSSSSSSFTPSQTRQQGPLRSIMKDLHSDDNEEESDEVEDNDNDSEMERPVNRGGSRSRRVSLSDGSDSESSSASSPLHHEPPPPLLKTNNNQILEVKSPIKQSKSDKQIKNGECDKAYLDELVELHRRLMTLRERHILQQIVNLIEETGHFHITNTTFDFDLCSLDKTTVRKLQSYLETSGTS
Test [2] deals with BDNF/NT-3 growth factors receptor (Homo sapiens, UniProt Q16620). Nature of the test: Affinity On-target Cellular interaction (NanoBRET assay (HEK293T cells)) EUB0000156b NTRK2. Further details: mode of action Negative control for DDR-TRK-1 (D2202-1), recommended concentration 1 uM.
In test [3] the target is High affinity nerve growth factor receptor (Homo sapiens, UniProt P04629). Nature of the test: Affinity On-target Cellular interaction (NanoBRET assay (HEK293T cells)) EUB0000156b NTRK1. On the set-up: mode of action Negative control for DDR-TRK-1 (D2202-1), recommended concentration 1 uM.
Chain of High affinity nerve growth factor receptor (P04629 whole entry, the tested form may be a part): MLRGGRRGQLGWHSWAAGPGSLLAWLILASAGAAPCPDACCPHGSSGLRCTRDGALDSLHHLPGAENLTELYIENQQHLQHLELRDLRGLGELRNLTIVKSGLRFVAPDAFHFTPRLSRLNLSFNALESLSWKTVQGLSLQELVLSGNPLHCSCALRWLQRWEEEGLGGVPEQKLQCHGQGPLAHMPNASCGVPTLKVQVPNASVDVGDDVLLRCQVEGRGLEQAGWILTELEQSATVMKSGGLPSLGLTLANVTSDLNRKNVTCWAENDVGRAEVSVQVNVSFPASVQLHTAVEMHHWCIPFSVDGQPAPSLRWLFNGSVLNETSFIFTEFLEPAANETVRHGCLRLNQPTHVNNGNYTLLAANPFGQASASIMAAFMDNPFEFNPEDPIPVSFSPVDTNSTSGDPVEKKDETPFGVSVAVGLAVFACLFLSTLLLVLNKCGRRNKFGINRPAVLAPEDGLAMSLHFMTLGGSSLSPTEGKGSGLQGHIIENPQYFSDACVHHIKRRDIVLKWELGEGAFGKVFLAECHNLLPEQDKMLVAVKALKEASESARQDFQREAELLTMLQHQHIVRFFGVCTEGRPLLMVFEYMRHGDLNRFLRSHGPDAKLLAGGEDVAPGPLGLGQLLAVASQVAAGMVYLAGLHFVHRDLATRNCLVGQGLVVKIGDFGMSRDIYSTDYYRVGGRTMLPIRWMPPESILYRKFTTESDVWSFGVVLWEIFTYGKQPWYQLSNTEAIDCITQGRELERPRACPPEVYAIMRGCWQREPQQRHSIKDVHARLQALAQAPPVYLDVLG
Test [4] addresses Epithelial discoidin domain-containing receptor 1 (Homo sapiens, UniProt Q08345). Nature of the test: Affinity On-target Cellular interaction (NanoBRET assay (HEK293T cells)) EUB0000156b DDR1. On the set-up: mode of action Negative control for DDR-TRK-1 (D2202-1), recommended concentration 1 uM.
Test [5] deals with Discoidin domain-containing receptor 2 (Homo sapiens, UniProt Q16832). Nature of the test: Affinity On-target Cellular interaction (NanoBRET assay (HEK293T cells)) EUB0000156b DDR2. Further details: mode of action Negative control for DDR-TRK-1 (D2202-1), recommended concentration 1 uM.
Test [6] has as its target Dual specificity protein kinase CLK1 (Homo sapiens, UniProt P49759). Nature of the test: Affinity On-target Cellular interaction (NanoBRET assay (HEK293T cells)) EUB0000724a CLK1. On the set-up: mode of action Inhibitor, recommended concentration 1 uM.
Test [7] can be described thus: Affinity On-target Cellular interaction (Cell-based assay) EUB0000315b MGAT2.
In test [8] the target is Cytochrome P450 11B2, mitochondrial (Homo sapiens, UniProt P19099). Nature of the test: Affinity On-target Cellular interaction (HTRF-based assay (V79 cell lines, CisBio)) EUB0000733a CYP11B2. Further details: mode of action Negative control for MSD-CYP11B2, recommended concentration 100 nM. (In TR-FRET formats the signal depends on donor and acceptor labels being close together.)
Chain of Cytochrome P450 11B2, mitochondrial (P19099 whole entry): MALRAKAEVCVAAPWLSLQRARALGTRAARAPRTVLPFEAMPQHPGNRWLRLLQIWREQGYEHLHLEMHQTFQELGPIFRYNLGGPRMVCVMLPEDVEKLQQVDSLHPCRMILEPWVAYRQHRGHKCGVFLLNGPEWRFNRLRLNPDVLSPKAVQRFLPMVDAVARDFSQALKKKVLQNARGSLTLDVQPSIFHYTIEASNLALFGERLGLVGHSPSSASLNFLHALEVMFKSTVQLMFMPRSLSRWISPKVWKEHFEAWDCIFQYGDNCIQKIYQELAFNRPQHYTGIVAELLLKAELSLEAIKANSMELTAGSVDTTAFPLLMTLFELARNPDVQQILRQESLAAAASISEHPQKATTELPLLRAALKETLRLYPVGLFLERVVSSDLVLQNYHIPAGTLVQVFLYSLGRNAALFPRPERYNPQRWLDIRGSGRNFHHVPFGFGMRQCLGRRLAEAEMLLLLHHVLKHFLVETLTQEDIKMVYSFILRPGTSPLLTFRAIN

In test [9] the target is Mitogen-activated protein kinase 1 (Homo sapiens, UniProt P28482).
Chain of Mitogen-activated protein kinase 1 (P28482 whole entry): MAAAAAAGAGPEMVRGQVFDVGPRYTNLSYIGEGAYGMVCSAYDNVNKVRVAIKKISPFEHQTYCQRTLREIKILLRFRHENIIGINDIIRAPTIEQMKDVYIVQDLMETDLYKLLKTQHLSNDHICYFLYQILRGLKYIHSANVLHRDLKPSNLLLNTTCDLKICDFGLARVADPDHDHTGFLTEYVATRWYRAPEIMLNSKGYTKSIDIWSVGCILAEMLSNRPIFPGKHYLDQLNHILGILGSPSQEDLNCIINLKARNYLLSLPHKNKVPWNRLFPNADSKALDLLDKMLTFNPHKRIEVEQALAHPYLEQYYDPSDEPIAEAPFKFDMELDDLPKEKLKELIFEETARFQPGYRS
Test [10] deals with T2, NADH dehydrogenase [ubiquinone] iron-sulfur protein 2, mitochondrial (Homo sapiens, UniProt O75306). Nature of the test: Affinity On-target Cellular interaction (Cellular activity assay (measurement of ATP levels in presence of complex II substrate succinate in H1299 cells)) EUB0000748a NDUFS2. The test is classed as cell-based. On the set-up: mode of action Negative control for BAY-179, recommended concentration 1 uM.
T2 sequence (O75306 whole entry): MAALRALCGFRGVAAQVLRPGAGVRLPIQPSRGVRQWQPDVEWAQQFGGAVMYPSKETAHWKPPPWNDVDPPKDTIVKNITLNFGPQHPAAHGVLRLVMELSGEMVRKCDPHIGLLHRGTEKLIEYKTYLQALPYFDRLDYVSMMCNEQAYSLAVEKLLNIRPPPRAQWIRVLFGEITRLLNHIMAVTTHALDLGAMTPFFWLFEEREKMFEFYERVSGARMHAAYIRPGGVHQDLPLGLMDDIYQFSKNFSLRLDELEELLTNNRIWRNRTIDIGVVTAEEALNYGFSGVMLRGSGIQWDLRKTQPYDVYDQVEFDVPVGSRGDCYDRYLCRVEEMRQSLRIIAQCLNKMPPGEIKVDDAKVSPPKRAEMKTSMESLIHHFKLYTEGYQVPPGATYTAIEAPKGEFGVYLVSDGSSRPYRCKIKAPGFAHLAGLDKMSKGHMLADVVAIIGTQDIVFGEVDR

Test [11] deals with T2, NADH dehydrogenase [ubiquinone] iron-sulfur protein 2, mitochondrial. Nature of the test: Affinity On-target Cellular interaction (Cellular activity assay (measurement of ATP levels in presence of complex II substrate succinate in H1299 cells)) EUB0000752a NDUFS2. The test is classed as cell-based. On the set-up: mode of action Inhibitor, recommended concentration 1 uM.
The nature of test [12]: Affinity On-target Cellular interaction (Measles Virus Inhibition Assay) EUB0000745a DHODH.
Test [13] addresses T1, Protein AF-9.
In test [14] the target is Protein farnesyltransferase subunit beta (Homo sapiens, UniProt P49356). Nature of the test: Affinity On-target Cellular interaction (Western Blot (inhibition of Ras in NIH 3T3 H-Ras cells)) EUB0000289c FNTB. The test is classed as cell-based. Further details: mode of action Inhibitor, recommended concentration 1 uM.
In a further test the target is Protein ENL (Homo sapiens, UniProt Q03111). Nature of the test: Affinity On-target Cellular interaction (NanoBRET assay (HEK293T cells)) EUB0000283b MLLT1. On the set-up: mode of action Inhibitor, recommended concentration 1 uM.
Chain of Protein ENL (Q03111 whole entry): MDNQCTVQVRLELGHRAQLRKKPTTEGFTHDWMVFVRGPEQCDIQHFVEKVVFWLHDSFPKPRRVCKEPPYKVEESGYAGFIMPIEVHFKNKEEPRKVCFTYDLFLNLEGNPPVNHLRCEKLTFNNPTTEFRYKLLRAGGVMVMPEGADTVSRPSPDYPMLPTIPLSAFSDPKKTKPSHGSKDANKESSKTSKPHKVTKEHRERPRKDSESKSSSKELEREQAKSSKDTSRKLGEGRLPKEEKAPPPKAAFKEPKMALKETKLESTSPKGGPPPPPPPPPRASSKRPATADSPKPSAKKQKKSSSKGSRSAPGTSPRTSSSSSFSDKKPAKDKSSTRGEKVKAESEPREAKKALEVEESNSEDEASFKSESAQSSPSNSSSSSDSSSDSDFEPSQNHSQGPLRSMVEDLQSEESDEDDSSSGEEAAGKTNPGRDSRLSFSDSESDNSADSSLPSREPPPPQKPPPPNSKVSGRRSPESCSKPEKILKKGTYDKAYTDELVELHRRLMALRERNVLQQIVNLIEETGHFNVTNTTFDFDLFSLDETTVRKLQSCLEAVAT

Chain of Epithelial discoidin domain-containing receptor 1 (Q08345 whole entry, the tested form may be a part): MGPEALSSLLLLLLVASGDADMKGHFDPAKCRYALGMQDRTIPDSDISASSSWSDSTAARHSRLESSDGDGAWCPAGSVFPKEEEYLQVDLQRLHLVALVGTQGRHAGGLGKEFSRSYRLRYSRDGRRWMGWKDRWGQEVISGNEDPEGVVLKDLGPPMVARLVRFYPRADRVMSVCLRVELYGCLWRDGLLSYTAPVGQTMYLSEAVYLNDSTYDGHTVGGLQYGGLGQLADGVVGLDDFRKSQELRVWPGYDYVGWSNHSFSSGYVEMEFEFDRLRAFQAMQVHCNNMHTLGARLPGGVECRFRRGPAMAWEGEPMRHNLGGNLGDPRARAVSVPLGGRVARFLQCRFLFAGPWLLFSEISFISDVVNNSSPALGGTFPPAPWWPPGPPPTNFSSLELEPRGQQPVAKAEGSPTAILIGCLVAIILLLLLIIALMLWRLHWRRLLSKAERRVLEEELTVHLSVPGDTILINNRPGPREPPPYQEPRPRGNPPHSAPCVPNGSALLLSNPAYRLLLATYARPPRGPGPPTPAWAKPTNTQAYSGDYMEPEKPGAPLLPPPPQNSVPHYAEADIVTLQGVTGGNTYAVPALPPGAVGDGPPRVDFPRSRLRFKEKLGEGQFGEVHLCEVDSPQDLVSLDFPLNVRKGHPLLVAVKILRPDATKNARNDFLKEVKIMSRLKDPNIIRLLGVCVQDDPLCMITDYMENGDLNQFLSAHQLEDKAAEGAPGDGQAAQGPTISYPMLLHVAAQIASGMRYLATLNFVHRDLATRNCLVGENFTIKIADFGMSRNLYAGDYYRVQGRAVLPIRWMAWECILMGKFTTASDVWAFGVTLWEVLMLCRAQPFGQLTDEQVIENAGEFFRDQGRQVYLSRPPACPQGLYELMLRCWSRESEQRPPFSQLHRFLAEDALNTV
Chain of Dual specificity protein kinase CLK1 (P49759 whole entry): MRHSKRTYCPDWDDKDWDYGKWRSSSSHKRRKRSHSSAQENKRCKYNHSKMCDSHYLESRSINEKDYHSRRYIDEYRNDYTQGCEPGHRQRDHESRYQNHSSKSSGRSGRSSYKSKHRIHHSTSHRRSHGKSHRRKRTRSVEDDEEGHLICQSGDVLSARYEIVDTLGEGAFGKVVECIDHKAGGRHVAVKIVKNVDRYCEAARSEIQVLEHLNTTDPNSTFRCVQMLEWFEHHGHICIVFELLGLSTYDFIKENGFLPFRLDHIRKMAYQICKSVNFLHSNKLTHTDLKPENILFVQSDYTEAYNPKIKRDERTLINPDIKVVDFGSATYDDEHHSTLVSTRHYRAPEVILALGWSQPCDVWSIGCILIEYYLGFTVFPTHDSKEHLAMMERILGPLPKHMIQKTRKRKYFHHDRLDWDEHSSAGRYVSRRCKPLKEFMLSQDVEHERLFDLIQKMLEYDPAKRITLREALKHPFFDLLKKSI

`CN(C)C(=O)c1ccc(-c2cc(C(=O)N(C)C3CCCC3)no2)cc1O` showed an IC50 against Protein AF-9 [1] of more than 30000 nM. For the molecule `CN1CCN(Cc2cc(NC(=O)c3ccc4c(c3)CN(c3ccccc3)CC4)cc(C(F)(F)F)c2)CC1`, the IC50 is 6800 nM in test [2], 19300 nM in [3], 26600 nM in [4] and 8720 nM in test [5]. Molecule `COc1cc(Nc2nccc(-c3cnn4nc(OC)ccc34)n2)cc(C(F)(F)F)c1` showed an IC50 in test [6] of 165 nM.

In [7], `Cn1nc(C(F)(F)F)cc1-c1cnc(N2CCc3cc(S(=O)(=O)Nc4c(F)cc(Cl)cc4F)cc(N4CCCC4=O)c32)nc1` [TP-020] gave an IC50 of 160 nM. In [8], `FC(F)(F)c1ccc2c(c1)nc(-c1cccnc1)n2C1CC1` [MSD-CYP11B2-Negative-control] had an IC50 of more than 10000 nM. In turn, `C[C@@H](NC(=O)Nc1cc2[nH]ncc2c(CO)n1)c1ccccc1` [ERKi] registered an IC50 in test [9] of 850 nM. `Cn1c(-c2csc(C3CCN(CC4=NC5N=CC=CC5N4)CC3)n2)nc2ccccc21` (stereo not given) [BAY-070]: in [10], the IC50 is more than 30000 nM.

For `c1ccc2oc(-c3csc(C4CCN(Cc5nc6ncccc6[nH]5)CC4)n3)cc2c1`, in [11], the IC50 is 79 nM.

`Cc1c(Oc2ccc(F)cc2)c(OC(C)C)nn1-c1ccc(C2CC2)cn1` [IPP/CNRS-A019] came in with an IC50 in [12] of 1200 nM.

On Protein AF-9 [13], `CN(C)C(=O)c1ccc(-c2cc(C(=O)N[C@@H]3CCc4ccccc43)no2)cc1O` gave an IC50 of 760 nM. With `Cn1cncc1[C@](O)(COc1ccc(C#N)cc1-c1ccc(OC(F)(F)F)cc1)c1ccc(C#N)cc1` [ABT-100], in [14], the EC50 is 0.73 nM. Consider `C[C@H]1CCCN1Cc1nc2cc(NC(=O)c3ccc4cnccc4c3)ccc2[nH]1`, for which, on Protein ENL, it took 500 nM to reach half-maximal inhibition (IC50).
